Bounds are passed on as bounds.

The experiment deals with eNOS promoter. Kind of experiment: Activation of eNOS transcription (eNOS promoter-luciferase reporter, human endothelial cell line). The settings on record: human endothelial cell line stably transfected with eNOS promoter-luciferase construct, 18 h incubation, determined graphically; read-out: EC50 values of transcription induction ratios (TIR). It is filed as cell-based. On the procedure:
A) Activation of eNOS Transcription
Activation of eNOS transcription was measured as described in detail by Li et al., “Activation of protein kinase C alpha and/or epsilon enhances transcription of the human endothelial nitric oxide synthase gene”, Mol. Pharmacol. 53 (1998) 630. Briefly, a 3.5 kB long fragment 5′ of the starting codon of the eNOS gene was cloned, sequenced and cloned in firefly luciferase expression plasmids to monitor activation of the eNOS promoter by reporter gene activity. A human endothelial cell line stable transfected and expressing this promoter-reporter construct was used for compound testing. Cells were incubated for 18 h with the compounds.
All compounds were dissolved in sterile dimethyl sulfoxide (DMSO). A final concentration of 0.5% DMSO in complete medium was allowed. Induction of reporter gene expression in these cells was measured using a standard luciferase assay system (Promega, Cat. No. E150) according to the manufacturer's instructions. Luciferase induction in cells incubated with compounds were compared to those incubated with solvent alone. The ratio of both activities (transcription induction ratio, TIR) was plotted as a function of compound concentration. Typically, TIR values started at low concentrations at a ratio of 1, indicating no compound effect, and extended up to a maximum TIR value TIR(max) which indicates the increase of the eNOS transcription. EC50 values of transcription induction ratios as a function of compound concentration were determined graphically.
For orientation: In a reporter assay the amount or activity of a reporter protein is the signal.
Regarding `Cc1ccc(-c2nc3cc(/C(N)=N/O)ccc3[nH]2)cc1` [Example 4, N-Hydroxy-2-p-tolyl-1H-benzoimidazole-5-carboxamidine], the EC50 is under 500 nM. In the case of `CC(C)OC(=O)O/N=C(\N)c1ccc2[nH]c(-c3ccc(F)cc3)nc2c1` [Example 7, 2-(4-Fluoro-phenyl)-N-isopropyloxycarbonyl-oxy-1H-benzoimidazole-5-carboxamidine], the EC50 is under 500 nM. For the compound `COC(=O)O/N=C(\N)c1ccc2[nH]c(-c3ccc(F)cc3)nc2c1` [Example 6, 2-(4-Fluoro-phenyl)-N-methoxycarbonyl-oxy-1H-benzoimidazole-5-carboxamidine], the EC50 is under 500 nM. Regarding `CCOC(=O)O/N=C(\N)c1ccc2[nH]c(-c3ccc(F)cc3)nc2c1` [Example 5, 2-(4-Fluoro-phenyl)-N-ethoxycarbonyl-oxy-1H-benzoimidazole-5-carboxamidine], the EC50 was under 500 nM.
